Values after ≈ are worked out from the molar mass of the structure shown.
What was measured:
[1] = acetic acid and ammonia NH3 in methanol, two equivalents, 5 mg/ml in CH3OH
[2] = physchem
[3] = Stability of amphotericin B solutions by HPLC analysis; details: for Stability in methanol solution in acid medium: topical grade
Method: The stability of the amphotericin B solutions was recorded by HPLC analysis using a reversed-phase column (C18 Bondapak, 25×0.5 cm, Waters Associates). A CH3 CN/10 mM acetate buffer, pH 7, system (39:61) was used as eluent. UV recording was performed at 404 and 362 nm. The flow rate was 2 ml/min. The retention time (RT) of amphotericin B is 9.5 minutes. Results were expressed as the percentage of the peak area.

C[C@@H]1[C@H](O)[C@@H](C)/C=C/C=C/C=C/C=C/C=C/C=C/C=C/[C@H](O[C@@H]2O[C@H](C)[C@@H](O)[C@H](N)[C@@H]2O)C[C@@H]2O[C@](O)(C[C@@H](O)C[C@@H](O)[C@H](O)CC[C@@H](O)C[C@@H](O)CC(=O)O[C@H]1C)C[C@H](O)[C@H]2C(=O)O [amphotericin B]
Dissolution of amphotericin B [1]: do not dissolve | solubility ([2]; ch3oh + 1.0 eq. hcl, organic solvent or mixture, Solubility of i.v. grade amphotericin B): 5000 µg/mL | solubility ([2]; ch3oh + 1.0 eq. naoh, organic solvent or mixture, Solubility of i.v. grade amphotericin B): 5000 µg/mL | solubility ([2]; ch3oh + 1.5 eq. hcl, organic solvent or mixture, Solubility of topical grade amphotericin B): 5000 µg/mL | solubility ([2]; ch3oh + 1.5 eq. naoh, organic solvent or mixture, Solubility of topical grade amphotericin B): 5000 µg/mL | solubility ([2]; ch3oh, acid, organic solvent or mixture, Solubility of amphotericin B): 3000 to 5000 µg/mL (≈ 3250 to 5410 µM) | solubility ([2]; ch3oh, basic, organic solvent or mixture, Solubility of amphotericin B): 2000 to 3000 µg/mL (≈ 2160 to 3250 µM) | solubility ([2]; ch3oh, neutral, organic solvent or mixture, Solubility of amphotericin B): 200 to 400 µg/mL (≈ 216 to 433 µM) | solubility ([2]; ch3oh, organic solvent or mixture, Solubility of i.v. grade amphotericin B): 150 µg/mL (≈ 162 µM) | solubility ([2]; ch3oh, organic solvent or mixture, Solubility of topical grade amphotericin B): 130 µg/mL (≈ 141 µM) | solubility ([2]; dimethylacetamide, organic solvent or mixture, Solubility of amphotericin B in DMA): 6000 µg/mL (≈ 6490 µM) | solubility ([2]; dimethylformamide, acid, organic solvent or mixture, Solubility of amphotericin B): 60000 to 80000 µg/mL (≈ 64900 to 86600 µM) | solubility ([2]; dimethylformamide, neutral, organic solvent or mixture, Solubility of amphotericin B): 2000 to 4000 µg/mL (≈ 2160 to 4330 µM) | solubility ([2]; h2o, acid, Solubility of amphotericin B): 100 µg/mL (≈ 108 µM) | solubility ([2]; h2o, basic, Solubility of amphotericin B): 100 µg/mL (≈ 108 µM) | Stability of neutral CH3OH solution ([3]; 0.1 mg/ml, 4° C.): stable for several days | Effect of neutralization with methanolic HCl on stability ([3]; basic CH3OH solution): no effect on the stability | Effect of addition of an excess of NaOH on stability ([3]; excess of NaOH, methanolic solution): does not affect the stability | Degradation in an acid medium ([3]; i.v. grade, methanol, one equivalent HCl, concentration greater than 2 mg/ml): increases greatly | Stability in methanolic NaOH solution ([3]; i.v. grade, one equivalent NaOH, up to 5 mg/ml): good stability | Stability in methanol solution in acid medium ([3]; 0.1 mg/ml, 1.5 eq. HCl): stable | Stability in methanol solution in acid medium ([3]; 5 mg/ml, acid medium (HCl)): degraded
